Test results as given in PubChem BioAssay AID1117350 (Cheminformatics & Chemogenomics Research Group (CCRG), …, 2015).
Activity calls are given as the source filed them. How the calls were made is not given here.

Tested on: HeLa, chromatin condensation phenotype imaging
Test: HeLa chromatin condensation increase, dose response, imaging, IC50 (AID 1117350)

Structure (SMILES)	IC50
O=c1[nH]c(=O)n([C@H]2C[C@H](O)[C@@H](CO)O2)cc1F	> 10 µM (inactive)
CC[C@@H]([C@H](C)O)n1ncn(-c2ccc(N3CCN(c4ccc(OC[C@@H]5CO[C@@](Cn6cncn6)(c6ccc(F)cc6F)C5)cc4)CC3)cc2)c1=O	> 10 µM (inactive)
Oc1c(I)cc(I)c2cccnc12	> 10 µM (inactive)
CCCCCCCCCCCC(=O)[O][Sn]([CH2]CCC)([CH2]CCC)[O]C(=O)CCCCCCCCCCC	> 10 µM (inactive)
O=C(Nc1ccc([N+](=O)[O-])cc1Cl)c1cc(Cl)ccc1O	> 10 µM (inactive)
CCN(CC)CCOc1ccccc1C(=O)CCc1ccccc1	> 10 µM (inactive)
Oc1ccc([C@H]2CNCc3c2ccc(O)c3O)cc1O	> 10 µM (inactive)
NCCCC[C@H](N[C@@H](CCc1ccccc1)C(=O)O)C(=O)N1CCC[C@H]1C(=O)O	> 10 µM (inactive)
O=C(O)CCCc1ccc(N(CCCl)CCCl)cc1	> 10 µM (inactive)
COc1cc(NC(C)CCCN)c2ncccc2c1 (stereo unspecified)	> 10 µM (inactive)
CCc1oc2ccccc2c1C(=O)c1cc(I)c(O)c(I)c1	> 10 µM (inactive)
[O-][n+]1ccccc1SSc1cccc[n+]1[O-]	2.23 µM
CCCCC1C(=O)N(c2ccccc2)N(c2ccc(O)cc2)C1=O (stereo unspecified)	> 10 µM (inactive)
O=C1c2c(O)cccc2Cc2cccc(O)c21	> 10 µM (inactive)
COC(=O)c1nc(Cl)c(Cl)nc1N	0.868 µM
CC[C@@]1(O)C(=O)OCc2c1cc1n(c2=O)Cc2c-1nc1ccccc1c2/C=N/OC(C)(C)C	> 10 µM (inactive)
O=C(O)CN(CCN(CC(=O)O)CC(=O)O)CCN(CC(=O)O)CC(=O)O	> 10 µM (inactive)
Cc1ccc(Nc2nccc(N(C)c3ccc4c(C)n(C)nc4c3)n2)cc1S(N)(=O)=O	> 10 µM (inactive)
Cc1ccc(CCn2c3c(c4cc(Cl)ccc42)CN(C)CC3)cn1	> 10 µM (inactive)
CC(C)=CCC/C(C)=C/CC/C(C)=C/C(=O)OCC(=O)[C@@]1(O)CC[C@H]2[C@@H]3CCC4=CC(=O)C=C[C@]4(C)[C@H]3[C@@H](O)C[C@@]21C	> 10 µM (inactive)
CC[C@H](C)C(=O)O[C@H]1C[C@@H](C)C=C2C=C[C@H](C)[C@H](CC[C@@H]3C[C@@H](O)CC(=O)O3)[C@H]21	> 10 µM (inactive)
Cc1cc(N)c2ccccc2[n+]1CCCCCCCCCC[n+]1c(C)cc(N)c2ccccc21	> 10 µM (inactive)

Structure (SMILES)	IC50
O[C@@H](CNC[C@H](O)[C@H]1CCc2cc(F)ccc2O1)[C@@H]1CCc2cc(F)ccc2O1	> 10 µM (inactive)
COC(=O)Nc1nc2ccc(Sc3ccccc3)cc2[nH]1	0.228 µM
CO[C@@H]1[C@@H](OC)[C@H](C)[C@@](O)(CC(=O)O)O[C@H]1[C@H](C)[C@H]1O[C@@]2(CC[C@@](C)([C@H]3CC[C@@](C)([C@@H]4O[C@@H]([C@H]5O[C@](C)(O)[C@H](C)C[C@@H]5C)C[C@@H]4OC4C[C@H](OC)[C@@H](OC)[C@H](C)O4)O3)O2)C[C@H](O)[C@H]1C (stereo partly specified)	> 10 µM (inactive)
O=C1C(=O)c2ccccc2C(O)=C1C1CCC(c2ccc(Cl)cc2)CC1 (stereo unspecified)	> 10 µM (inactive)
CCc1nc(N)nc(N)c1-c1ccc(Cl)cc1	> 10 µM (inactive)
Clc1ccc(Nc2nnc(Cc3ccncc3)c3ccccc23)cc1	> 10 µM (inactive)
Cc1ccc2nc(N)[nH]c(=O)c2c1Sc1ccncc1	> 10 µM (inactive)
CCCCC(CC)CN=C(N)NC(N)=NCCCCCCN=C(N)NC(N)=NCC(CC)CCCC (stereo unspecified)	> 10 µM (inactive)
Cc1nc2ccc(CN(C)c3ccc(C(=O)N[C@@H](CCC(=O)O)C(=O)O)s3)cc2c(=O)[nH]1	> 10 µM (inactive)
C[C@@H]1C[C@@H]([C@H](O)CC2CC(=O)NC(=O)C2)C(=O)[C@@H](C)C1	> 10 µM (inactive)
COC(=O)Nc1nc2ccc(C(=O)c3ccccc3)cc2[nH]1	0.0648 µM
CCCCCCCCCCCCCCCC[N+](C)(C)CCN(Cc1ccc(OC)cc1)c1ncccn1	> 10 µM (inactive)
NCCNc1ccc(NCCN)c2c1C(=O)c1ccncc1C2=O	> 10 µM (inactive)
COc1cc(NCc2ccc3nc(N)nc(N)c3c2C)cc(OC)c1OC	> 10 µM (inactive)
O=C(O)CCc1nc2ccccc2[nH]1	> 10 µM (inactive)
CCCOc1ccc2nc(NC(=O)OC)[nH]c2c1	0.0775 µM
COc1cccc2c1C(=O)c1c(O)c3c(c(O)c1C2=O)C[C@@](O)(C(=O)CO)C[C@@H]3O[C@H]1C[C@H](N)[C@H](O[C@@H]2CCCCO2)[C@H](C)O1	> 10 µM (inactive)
CN(C)c1ccc2nc3ccc(=[N+](C)C)cc-3sc2c1	> 10 µM (inactive)
CC[C@H]1CN2CCc3cc(OC)c(OC)cc3[C@@H]2C[C@@H]1C[C@H]1NCCc2cc(OC)c(OC)cc21	0.948 µM
CC(=O)Oc1ccc(C2(c3ccc(OC(C)=O)cc3)Oc3ccccc3NC2=O)cc1	> 10 µM (inactive)
Cn1cnc([N+](=O)[O-])c1Sc1ncnc2nc[nH]c12	> 10 µM (inactive)
CCN(CC)CCOc1ccc(C(O)(Cc2ccc(Cl)cc2)c2ccc(C)cc2)cc1 (stereo unspecified)	> 10 µM (inactive)

Structure (SMILES)	IC50
CC[n+]1c(-c2ccccc2)c2cc(N)ccc2c2ccc(N)cc21	> 10 µM (inactive)
CCCN(CCC)C(=O)C(CCC(=O)OCCCN1CCN(CCOC(=O)Cc2c(C)n(C(=O)c3ccc(Cl)cc3)c3ccc(OC)cc23)CC1)NC(=O)c1ccccc1 (stereo unspecified)	> 10 µM (inactive)
CC(=O)Oc1ccccc1C(=O)Nc1ncc([N+](=O)[O-])s1	> 10 µM (inactive)
Cc1nc2ccccc2n1Cc1ccc(Cl)cc1	> 10 µM (inactive)
CCN(CC)CCNC(=O)c1c(C)[nH]c(/C=C2\C(=O)Nc3ccc(F)cc32)c1C	3.81 µM
CCCCCCCCCCCCCCCCNc1ccc(C(=O)O)cc1	> 10 µM (inactive)
CCCCCCCCCCCCCCCC[n+]1ccccc1	0.515 µM
O=C(NOCC1CC1)c1ccc(F)c(F)c1Nc1ccc(I)cc1Cl	> 10 µM (inactive)
CCCCCCCCCCOCC(O)CN (stereo unspecified)	> 10 µM (inactive)
COC(=O)Nc1nc2ccc(S(=O)c3ccccc3)cc2[nH]1 (stereo unspecified)	0.241 µM
O=[N+]([O-])c1ccc(O)c2ncccc12	> 10 µM (inactive)
C[C@]12CC[C@@H]3c4ccc(O)cc4CC[C@H]3[C@@H]1CC[C@@H]2OC(=O)CCC1CCCC1	> 10 µM (inactive)
C=C(C)[C@H]1Cc2c(ccc3c2O[C@@H]2COc4cc(OC)c(OC)cc4[C@@H]2C3=O)O1	0.223 µM
CCN(CC)CCCC(C)Nc1c2ccc(Cl)cc2nc2ccc(OC)cc12 (stereo unspecified)	8.58 µM (inactive)
Clc1ccccc1C(c1ccccc1)(c1ccccc1)n1ccnc1	> 10 µM (inactive)
Cc1nc(N)nc(N)c1-c1ccc(Cl)c(Cl)c1	> 10 µM (inactive)
Nc1nc(=O)n([C@@H]2O[C@H](CO)[C@@H](O)[C@@H]2F)cc1I	> 10 µM (inactive)
COc1ccc2cc3[n+](cc2c1OC)CCc1cc2c(cc1-3)OCO2	> 10 µM (inactive)
CCCCOC(=O)c1ccc(N)cc1	> 10 µM (inactive)
Nc1ccc2cc3ccc(N)cc3nc2c1	2.47 µM
O=C(CCBr)N1CCN(C(=O)CCBr)CC1	> 10 µM (inactive)
O=C1c2c(O)ccc(O)c2C(=O)c2c(NCCNCCO)ccc(NCCNCCO)c21	> 10 µM (inactive)
